From US7348402B2, “Antimicrobial peptide, its analogs and antimicrobial composition comprising them” (priority 2002, dated 2008)
No end group written: not given here.

Tests used:
Type in all cases: cell-based
[1] = tested on: Staphylococcus aureus (ATCC 15752); settings: ATCC 15752, 12 h
Text: (§1) The microorganisms used in the present invention include Gram-positive bacteria such as Bacillus subtilis (ATCC 62037), Staphylococcus aureus (ATCC 15752) and Streptococcus mutans (ATCC 25175), Gram-negative bacteria such as Escherichia coli (ATCC 27325), Salmonella enteritidis (ATCC 15277) and Pseudomonas putida (ATCC 17426) and fungi such as Candida albicans (ATCC 10231), Saccharomyces cerevisiae (ATCC 44774) and Cryptococcus neoformans (ATCC 34881), obtained from American Type Culture Collection (ATCC).
(§2) The antimicrobial activity of the peptides prepared in Example 1 was determined against microorganisms by 96-well microdilution minimal inhibitory concentration assay. After overnight culturing the bacteria and fungi in trypticase soy broth (TSB) and Saboraud (SAB) at 37° C. and 30° C., respectively, they were inoculated in new media and cultured for 2 hours to exponential growth phase. After diluting the microorganisms to 10^5 per 1 ml, 190 μl was inoculated in each 96-well plate, and 10 μl of serially diluted peptides were added in each well.

[2] = tested on: Bacillus subtilis (ATCC 62037); settings: ATCC 62037, 12 h
Text: as §1, §2

[3] = tested on: Candida albicans (ATCC 10231); settings: ATCC 10231, 12 h
Text: as §1, §2

[4] = tested on: Cryptococcus neoformans (ATCC 34881); settings: ATCC 34881, 12 h
Text: as §1, §2

[5] = tested on: Salmonella enteritidis (ATCC 15277); settings: ATCC 15277, 12 h
Text: as §1, §2

[6] = tested on: Pseudomonas putida (ATCC 17426); settings: ATCC 17426, 12 h
Text: as §1, §2

[7] = tested on: Escherichia coli (ATCC 27325); settings: ATCC 27325, 12 h
Text: as §1, §2

[8] = tested on: Streptococcus mutans (ATCC 25175); settings: ATCC 25175, 12 h
Text: as §1, §2

[9] = tested on: Saccharomyces cerevisiae (ATCC 44774); settings: ATCC 44774, 12 h
Text: as §1, §2

| Substance | Minimum Inhibitory Concentration [1] [µg/mL] | Minimum Inhibitory Concentration [2] [µg/mL] | Minimum Inhibitory Concentration [3] [µg/mL] | Minimum Inhibitory Concentration [4] [µg/mL] | Minimum Inhibitory Concentration [5] [µg/mL] | Minimum Inhibitory Concentration [6] [µg/mL] | Minimum Inhibitory Concentration [7] [µg/mL] | Minimum Inhibitory Concentration [8] [µg/mL] | Minimum Inhibitory Concentration [9] [µg/mL] |
| --- | --- | --- | --- | --- | --- | --- | --- | --- | --- |
| RLLKQWPIGRLLKRLLKRLLK [compound 11] | 1 | 1 | 1 | 1 | 2 | 1 | 1 | 2 | 2 |
| RVVRNWPIGRVVRRVVRRVVR [compound 18] | 1 | 1 | 1 | 1 | 2 | 1 | 1 | 2 | 1 |
| KLVRKLVRKLVRQWPIGKLVR [compound 50] | 1 | 1 | 1 | 1 | 2 | 1 | 1 | 1 | 2 |
| RVLKRVLKRVLKNWPIGRVLK-NH2 [compound 72] | 1 | 1 | 1 | 1 | 1 | 1 | 1 | 2 | 2 |
| RVLRQWPIGRVLRRVLRRVLR [compound 5] | 1 | 1 | 1 | 1 | 1 | 1 | 1 | 1 | 2 |
| KVVKQWPIGKVVKKVVKKVVK [compound 2] | 1 | 1 | 1 | 1 | 1 | 1 | 1 | 2 | 2 |
| KVLRNWPIGKVLRKVLRKVLR [compound 31] | 1 | 1 | 1 | 1 | 1 | 1 | 1 | 2 | 2 |
| KLVRQFPVGKLVRKLVRKLVR [compound 17] | 1 | 2 | 1 | 1 | 1 | 1 | 1 | 2 | 1 |
| RVLRRVLRRVLRQWPIGRVLR [compound 39] | 2 | 2 | 2 | 1 | 1 | 1 | 1 | 2 | 2 |
| RLLRQWPIGRLLRRLLRRLLR [compound 3] | 1 | 2 | 1 | 1 | 1 | 1 | 2 | 1 | 2 |
| RVLKQWPIGRVLKRVLKRVLK [compound 13] | 1 | 2 | 1 | 1 | 1 | 1 | 1 | 2 | 2 |
| KLVRKLVRKLVRNFPVGKLVR [compound 68] | 1 | 1 | 1 | 1 | 1 | 1 | 1 | 2 | 2 |
| KLVRQWPIGKLVRKLVRKLVR-NH2 [compound 69] | 1 | 1 | 1 | 1 | 2 | 1 | 1 | 1 | 2 |
| RLLRNWPIGRLLRRLLRRLLR [compound 20] | 1 | 2 | 1 | 1 | 2 | 1 | 1 | 2 | 2 |
| KVLKKVLKKVLKNWPIGKVLK [compound 57] | 1 | 1 | 1 | 1 | 1 | 1 | 2 | 2 | 2 |
| KVVRQWPIGKVVRKVVRKVVR [compound 10] | 1 | 1 | 2 | 1 | 1 | 1 | 1 | 2 | 2 |
| KVLRKVLRKVLRNWPIGKVLR [compound 65] | 1 | 2 | 1 | 1 | 2 | 1 | 1 | 2 | 1 |
| KVVKKVVKKVVKQWPIGKVVK [compound 36] | 1 | 1 | 2 | 1 | 1 | 1 | 2 | 2 | 2 |
| RVVRRVVRRVVRQWPIGRVVR [compound 35] | 1 | 1 | 1 | 1 | 1 | 1 | 2 | 1 | 2 |
| RLVKNWPIGRLVKRLVKRLVK [compound 32] | 1 | 1 | 1 | 1 | 1 | 1 | 1 | 2 | 2 |
